This note sets out measurements from patent US20230330254A1 (Regeneron Pharmaceuticals, Inc., priority 2022, published 2023).

pEC50: −log10 of the molar value. Where a SMILES comes first, the peptide text is derived from it. [ ]: non-standard residue; d: D form. The star is where a group is joined. Bip(2'-Et,4'-O(CH2)4NH2) = CCc1cc(OCCCCN)ccc1-c1ccc(C[C@H](N)C(=O)O)cc1; Malonyl(2,2-Me2,histaminyl) = CC(C)(C(=O)NCCc1cnc[nH]1)C(=O)*; Nva(5-(3,5-Me2Ph)) = Cc1cc(C)cc(CCC[C@H](N)C(=O)O)c1; Ala(1H-tetrazol-5-yl) = N[C@@H](Cc1nnn[nH]1)C(=O)O; αMePhe(2-F) = C[C@](N)(Cc1ccccc1F)C(=O)O

Holding throughout (assay type): cell-based
For experiment [1], the target named is T1, human GLP1R (Homo sapiens, UniProt P43220). Kind of experiment: CRE-luciferase reporter assay, HEK293/Myc-hGLP1R/Cre-Luc (Example 9). Also on record: engineered to express full-length human GLP1R, cynomolgus GLP1R; expressed in transfected cells; host or cells: HEK293/CRE-Luc. On the procedure:
To test the activity of GLP1R agonist payloads and GLP1R agonist linker-payloads (LPs) in vitro, a cell-based cAMP responsive luciferase reporter assay was developed.
Cells were incubated overnight at 37° C. in 5% CO2. […] Plates were incubated for 5.5 h at 37° C. in 5% CO2. For end-point measurement, 100 μL/well of One-Glo reagent (Promega, #E6051) was added and plates were kept at room temperature for 5-10 minutes. Luciferase activity was measured on Envision Multilabel Plate Reader (Perkin Elmer) in Luminescent mode. The relative light units (RLU) values were obtained and the results were analyzed using nonlinear regression with GraphPad Prism software (GraphPad).
Background: In a reporter assay the amount or activity of a reporter protein is the signal.

The target of experiment [2] is T1, human GLP1R. Kind of experiment: Human GLP1R cAMP accumulation assay. Set-up: HEK293 cells over-expressing full length human GLP-1R were utilized; expressed in transfected cells; host or cells: HEK293 (HEK293/hGLP1R). The essentials: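 cAMP accumulation measured after 30 min at 23° C, with 500 μM IBMX in HEPES-buffered HBSS plus 0.1% BSA, in HEK293 cells expressing full-length hGLP-1R. Levels read by D2-cAMP/antibody immunoassay via standard curve, scaled between low and high controls. EC50 fitted four-parameter over a 10-point curve.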
For orientation: cAMP levels reflect the balance of adenylyl cyclase and phosphodiesterase activity.

The target in experiment [3] is T2, human glucagon receptor (GCGR) (Homo sapiens, UniProt P47871).
T2 construct: full-length human GLP1R, cynomolgus GLP1R, human glucagon receptor (GCGR); expressed in transfected cells; host or cells: HEK293/CRE-Luc
Kind of experiment: Luciferase reporter assay, HEK293/CRE-Luc/hGCGR (Example 17). As to conditions: Table 28; CRE-dependent luciferase reporter activity.

For experiment [4], the target named is T1, human GLP1R. Kind of experiment: b-arrestin 2 recruitment assay, PathHunter CHO/b-arrestin 2/hGLP1R cells. The conditions noted are these: read-out: CHO/b-arrestin 2/hGLP1R Emax (% GLP-1). On the procedure:
The b-arrestin 2 recruitment assay was performed following manufacter's instructions (Eurofins DiscoverX, #93-0300E2CP0M), with minor modifications. […] Serial dilutions of free payload and LP were performed in 100% DMSO, followed by 1:100 dilution in assay media. Test articles were added to cells (1:5 dilution) with the last well in each serial dilution series serving as a blank control containing only assay media for antibodies and ATLs or assay media with 0.2% DMSO for payload and LP. After a 90-minute incubation at 37° C., PathHunter Detection Reagent (Eurofins DiscoverX, #93-0300E2CP0M) was added to the wells followed by a 1-hour incubation at room temperature. RLUs were measured on EnVision Plate Reader (Perkin Elmer).
(§1) EC50 values for luminescence assays were determined using a four-parameter logistic equation over a 12-point dose response curve (GraphPad Prism).

Experiment [5] has as its target T1, human GLP1R. The experiment in a line: CRE-Luc cAMP reporter assay, HEK293/CRE-Luc/hGLP1R (Example 24). Also on record: engineered to express full-length human GLP1R, cynomolgus GLP1R; expressed in transfected cells; host or cells: HEK293/CRE-Luc.
Source text: To test the activity of GLP1R agonist payloads, GLP1R agonist linker-payloads (LPs), and anti-GLP1R antibody-tethered ligands (ATLs) of the invention, a cell-based cAMP responsive luciferase reporter assay was developed. To generate the assay cell line, the firefly luciferase gene was placed under the control of a cAMP response element (CRE) located upstream of a minimal promoter and transfected into HEK293 cells and referred to herein as HEK293/CRE-Luc cells. HEK293/CRE-Luc cells were then engineered to express full-length human GLP1R (HEK293/CRE-Luc/hGLP1R), cynomolgus GLP1R (HEK293/CRE-Luc/mfGLP1R), or mouse GLP1R (HEK293/CRE-Luc/mGLP1R).
Serial dilutions of free payload and linker payloads (LP) were performed in 100% DMSO (ATCC, #4-X-5), followed by 1:100 dilution in assay media. Test articles were added to cells (1:5 dilution) with the last well in each serial dilution series serving as a blank control containing only assay media for antibodies and ATLs or assay media with 0.2% DMSO for payloads and LPs. After a 5-hour incubation at 37° C., luciferase activity was determined by addition of ONE-Glo reagent (Promega, #E6130) followed by measurement of relative light units (RLUs) on an EnVision Plate Reader (Perkin Elmer).
as §1

Where [6] appears, read: HEK293/hGLP1R cells, Table 4, read-out: cAMP EC50.

T1 sequence (P43220 24-463): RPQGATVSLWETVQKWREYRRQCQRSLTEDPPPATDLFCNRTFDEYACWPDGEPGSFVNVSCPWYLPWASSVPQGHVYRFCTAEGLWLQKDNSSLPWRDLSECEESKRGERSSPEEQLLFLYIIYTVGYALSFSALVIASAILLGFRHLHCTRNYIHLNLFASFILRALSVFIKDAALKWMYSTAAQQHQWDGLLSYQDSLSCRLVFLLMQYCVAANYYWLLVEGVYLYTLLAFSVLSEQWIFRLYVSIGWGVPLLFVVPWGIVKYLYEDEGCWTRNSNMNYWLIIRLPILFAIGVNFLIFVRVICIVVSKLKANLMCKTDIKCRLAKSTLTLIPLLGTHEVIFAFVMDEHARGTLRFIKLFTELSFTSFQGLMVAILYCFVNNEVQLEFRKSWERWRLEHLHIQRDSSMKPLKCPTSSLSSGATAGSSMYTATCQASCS
T2 sequence (P47871 26-477): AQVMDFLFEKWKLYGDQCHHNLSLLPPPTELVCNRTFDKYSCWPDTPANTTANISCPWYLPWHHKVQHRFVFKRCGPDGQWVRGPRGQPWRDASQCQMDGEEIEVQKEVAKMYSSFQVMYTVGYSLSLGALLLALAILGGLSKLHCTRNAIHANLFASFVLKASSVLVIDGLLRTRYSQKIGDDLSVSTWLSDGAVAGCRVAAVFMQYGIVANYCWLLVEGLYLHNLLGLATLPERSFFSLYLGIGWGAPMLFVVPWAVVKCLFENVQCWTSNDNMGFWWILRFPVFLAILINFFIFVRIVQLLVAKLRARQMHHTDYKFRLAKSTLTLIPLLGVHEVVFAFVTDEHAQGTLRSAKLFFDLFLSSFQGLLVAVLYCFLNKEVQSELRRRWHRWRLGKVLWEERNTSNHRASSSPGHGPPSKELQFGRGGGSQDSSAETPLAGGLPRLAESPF

In the case of `CCc1cc(OCCCCn2cc(COCCOCCOCCOCCOCCOCCOCCOCCN)nn2)ccc1-c1ccc(C[C@H](NC(=O)[C@H](CC(=O)O)NC(=O)[C@H](CO)NC(=O)[C@@H](NC(=O)C(C)(Cc2ccccc2F)NC(=O)[C@@H](NC(=O)CNC(=O)[C@H](Cc2nn[nH]n2)NC(=O)C(C)(C)C(=O)NCCc2cnc[nH]2)[C@@H](C)O)[C@@H](C)O)C(=O)N[C@@H](CCCc2cc(C)cc(C)c2)C(N)=O)cc1` (stereo partly shown) [LP11, NH2-PEG8-triazole-P8], the pEC50 is 10.80 in experiment [1] (Table 5C, read-out: GLP1R LUC EC50); 10.80 in experiment [1] (Table 9, […], read-out: HEK293/Myc-hGLP1R/Cre-Luc EC50); 9.50 in experiment [2] (setting [6]); 9.50 in experiment [2] (Table 5C, read-out: c-AMP EC50).
As to `CCc1cc(OCCCCn2cc(COCCOCCOCCOCCOCCOCCOCCOCCN)nn2)ccc1-c1ccc(C[C@H](NC(=O)[C@H](CC(=O)O)NC(=O)[C@H](CO)NC(=O)[C@@H](NC(=O)[C@](C)(Cc2ccccc2F)NC(=O)[C@@H](NC(=O)CNC(=O)[C@H](Cc2nn[nH]n2)NC(=O)C(C)(C)C(=O)NCCc2cnc[nH]2)[C@@H](C)O)[C@@H](C)O)C(=O)N[C@@H](CCCc2cc(C)cc(C)c2)C(N)=O)cc1` [M3190], the pEC50 in experiment [3] is below 6.70; in experiment [5] (Table 40, CRE-dependent reporter activity, no unit printed in table (text b1912 reads values as M)) it was 10.77. Besides, the Emax in experiment [4] was found to be 108%; in experiment [5] (HEK293, read-out: HEK293/CRE-Luc/hGLP1R Emax (% GLP-1)), 93.9%.
Regarding `CCc1cc(OCCCCN)ccc1-c1ccc(C[C@H](NC(=O)[C@H](CC(=O)O)NC(=O)[C@H](CO)NC(=O)[C@@H](NC(=O)[C@](C)(Cc2ccccc2F)NC(=O)[C@@H](NC(=O)CNC(=O)[C@H](Cc2nn[nH]n2)NC(=O)C(C)(C)C(=O)NCCc2cnc[nH]2)[C@@H](C)O)[C@@H](C)O)C(=O)N[C@@H](CCCc2cc(C)cc(C)c2)C(N)=O)cc1` [P9, (8S,14S,17S,20S,23S,26S)-8-((2H-tetrazol-5-yl)methyl)-26-(((S)-1-(((S)-1-amino-5-(3,5-dimethylphenyl)-1-oxopentan-2-yl)amino)-3-(4′-(4-aminobutoxy)-2′-ethyl-[1,1′-biphenyl]-4-yl)-1-oxopropan-2-yl)carbamoyl)-17-(2-fluorobenzyl)-14,20-bis((R)-1-hydroxyethyl)-23-(hydroxymethyl)-1-(1H-imidazol-5-yl)-5,5,17-trimethyl-4,6,9,12,15,18,21,24-octaoxo-3,7,10,13,16,19,22,25-octaazaoctacosan-28-oic acid] ({Malonyl(2,2-Me2,histaminyl)}-[Ala(1H-tetrazol-5-yl)]GT[αMePhe(2-F)]TSD[Bip(2'-Et,4'-O(CH2)4NH2)][Nva(5-(3,5-Me2Ph))]-NH2), the pEC50 in experiment [1] (Table 9, 5.5 h, read-out: HEK293/Myc-hGLP1R/Cre-Luc EC50) is 11.48; in experiment [2] (setting [6]) it was 10.30.
